In patent publication US10696637B2, “Nitrogen-containing heterocyclic compound” (FUJIFILM Corporation, priority 2015, dated 2020):

tested on: CXCL10 production; assay: CXCL10 production inhibition test; type: cell-based; details: Endothelial cell; test compound 0.1 μmol/L; human umbilical vein-derived endothelial cells; TNFα 10 ng/mL; supernatant 72 hours after stimulation; ELISA; read-out: Rate of inhibition of CXCL10 production
Experimental: (CXCL10 Production Inhibition Test)
0.5×10^4 or 1×10^4 human umbilical vein-derived endothelial cells were suspended in 100 μL of an EGM-2 BulletKit medium (without GA) or a Medium-200 medium supplemented with an EGM-2 SingleQuots kit (without GA), inoculated to a 96-well plate and cultured overnight. 100 μL of a solution of each test compound diluted with the same medium as that used in the inoculation was added to the cultured cells (final concentration of the test compound: 0.1 μmol/L). 1 hour thereafter, TNFα was added thereto at a final concentration of 10 ng/mL. 72 hours after the stimulation, the supernatant was recovered, and the amount of CXCL10 produced in the culture supernatant was determined using an ELISA kit (Peprotech, 900-109).
The rate of inhibition was calculated according to the following expression: Rate of inhibition (%)=100−(Amount of CXCL10 produced in the presence of the test compound/Amount of CXCL10 produced in the absence of the test compound)×100

Structure (SMILES) | inhibition at 0.1 µM
CCn1c(=O)cc(C2CCN(C)CC2)c2cc(C(=O)N3CCCc4ccccc43)ccc21 [Example 11, 6-(3,4-dihydroquinolin-1(2H)-ylcarbonyl)-1-ethyl-4-(1-methylpiperidin-4-yl)quinolin-2(1H)-one] | ≥ 50%
CCn1c(=O)cc(C2CCN(C)CC2)c2cc(C(=O)N(C)c3ccc(C)c(Cl)c3)ccc21 [Example 293, N-(3-chloro-4-methylphenyl)-1-ethyl-N-methyl-4-(1-methylpiperidin-4-yl)-2-oxo-1,2-dihydroquinoline-6-carboxamide] | ≥ 50%
CCn1c(=O)cc(C(C)C)c2cc(N(C)C(=O)c3ccc(Cl)cc3)ccc21 [Example 16, 4-chloro-N-(1-ethyl-2-oxo-4-(propan-2-yl)-1,2-dihydroquinolin-6-yl)-N-methylbenzamide] | ≥ 50%
CCn1c(=O)cc(N2CCOCC2)c2cc(-n3c(-c4ccccc4)cn(CCN4CCOCC4)c3=O)ccc21 [Example 260, 1-ethyl-4-(morpholin-4-yl)-6-(3-(2-(morpholin-4-yl)ethyl)-2-oxo-5-phenyl-2,3-dihydro-1H-imidazol-1-yl)quinolin-2(1H)-one] | ≥ 50%
CCn1c(=O)cc(C2CC2)c2cc(-n3c(-c4ccc(C)cc4)c[nH]c3=O)ccc21 [Example 276, 4-cyclopropyl-1-ethyl-6-(5-(4-methylphenyl)-2-oxo-2,3-dihydro-1H-imidazol-1-yl)quinolin-2(1H)-one] | ≥ 50%
CCn1c(=O)cc(C2CCC(O)CC2)c2cc(C(=O)N(C)c3ccc(Cl)cc3)ccc21 (centres unmarked) [Example 286, N-(4-chlorophenyl)-1-ethyl-4-(4-hydroxycyclohexyl)-N-methyl-2-oxo-1,2-dihydroquinoline-6-carboxamide] | ≥ 50%
CCn1c(=O)cc(C2CC2)c2cc(-n3c(-c4ccc(Cl)cc4)cn(C)c3=O)ccc21 [Example 269, 6-(5-(4-chlorophenyl)-3-methyl-2-oxo-2,3-dihydro-1H-imidazol-1-yl)-4-cyclopropyl-1-ethylquinolin-2(1H)-one] | ≥ 50%
CCn1c(=O)cc(C2CC2)c2cc(N(C)C(=O)c3ccccc3)ccc21 [Example 2, N-(4-cyclopropyl-1-ethyl-2-oxo-1,2-dihydroquinolin-6-yl)-N-methylbenzamide] | ≥ 50%
CCN1CCC(c2cc(=O)n(CC)c3ccc(C(=O)N(C)c4ccccc4)cc23)CC1 [Example 8, 1-ethyl-4-(1-ethylpiperidin-4-yl)-N-methyl-2-oxo-N-phenyl-1,2-dihydroquinoline-6-carboxamide] | ≥ 50%
CCn1c(=O)cc(N2CCOCC2)c2cc(-c3ccccc3-c3ccccc3)ccc21 [Example 258, 6-(biphenyl-2-yl)-1-ethyl-4-(morpholin-4-yl)quinolin-2(1H)-one] | ≥ 50%
CCn1c(=O)cc(N2CCOCC2)c2cc(-n3cc(C)nc3-c3ccccc3)ccc21 [Example 256, 1-ethyl-6-(4-methyl-2-phenyl-1H-imidazol-1-yl)-4-(morpholin-4-yl)quinolin-2(1H)-one] | ≥ 50%
CCn1c(=O)cc(N2CCOCC2)c2cc(N3C(=O)CC[C@H]3c3ccccc3)ccc21 [Example 253, 1-ethyl-4-(morpholin-4-yl)-6-((5S)-2-oxo-5-phenylpyrrolidin-1-yl)quinolin-2(1H)-one] | ≥ 50%
CCn1c(=O)cc(C2CC2)c2cc(-c3nccnc3-c3ccccc3)ccc21 [Example 284, 4-cyclopropyl-1-ethyl-6-(3-phenylpyradin-2-yl)quinolin-2(1H)-one] | ≥ 50%
CCn1c(=O)cc(N2CCOCC2)c2cc(-n3c(-c4ccccc4)cn(CCN(C)C)c3=O)ccc21 [Example 261, 6-(3-(2-(dimethylamino)ethyl)-2-oxo-5-phenyl-2,3-dihydro-1H-imidazol-1-yl)-1-ethyl-4-(morpholin-4-yl)quinolin-2(1H)-one] | ≥ 50%
CCn1c(=O)cc(N2CCOCC2)c2cc(-c3nccn3-c3ccccc3)ccc21 [Example 257, 1-ethyl-4-(morpholin-4-yl)-6-(1-phenyl-1H-imidazol-2-yl)quinolin-2(1H)-one] | ≥ 50%
CCn1c(=O)cc(C2CC2)c2cc(-n3c(=O)cc(C)n3-c3ccccc3)ccc21 [Example 282a, 4-cyclopropyl-1-ethyl-6-(3-methyl-5-oxo-2-phenyl-2,5-dihydro-1H-pyrazol-1-yl)quinolin-2(1H)-one] | ≥ 50%
CCn1c(=O)cc(N2CCOCC2)c2cc(-n3c(-c4ccc(C)cc4)c[nH]c3=O)ccc21 [Example 274] | ≥ 50%
CCn1c(=O)cc(C2CC2)c2cc(-n3c(C)cc(=O)n3-c3ccccc3)ccc21 [Example 282b, 4-cyclopropyl-1-ethyl-6-(5-methyl-3-oxo-2-phenyl-2,3-dihydro-1H-pyrazol-1-yl)quinolin-2(1H)-one] | ≥ 50%

Structure (SMILES) | inhibition at 0.1 µM
CCn1c(=O)cc(C2CCN(C(C)=O)CC2)c2cc(C(=O)N(C)c3ccc(C)cc3)ccc21 [Example 290, 4-(1-acetylpiperidin-4-yl)-1-ethyl-N-methyl-N-(4-methylphenyl)-2-oxo-1,2-dihydroquinoline-6-carboxamide] | ≥ 50%
CCn1c(=O)cc(N2CCOCC2)c2cc(-n3c(-c4ccc(Cl)cc4)cn(C)c3=O)ccc21 [Example 246, 6-(5-(4-chlorophenyl)-3-methyl-2-oxo-2,3-dihydro-1H-imidazol-1-yl)-1-ethyl-4-(morpholin-4-yl)quinolin-2(1H)-one] | ≥ 50%
CCn1c(=O)cc(C2CC2)c2cc(N3C(=O)CC[C@H]3c3ccccc3)ccc21 [Example 254, 4-cyclopropyl-1-ethyl-6-((5S)-2-oxo-5-phenylpyrrolidin-1-yl)quinolin-2(1H)-one] | ≥ 50%
CCn1c(=O)cc(C2CC2)c2cc(-n3c(-c4ccc(C)cc4)cn(C)c3=O)ccc21 [Example 275, 4-cyclopropyl-1-ethyl-6-(3-methyl-5-(4-methylphenyl)-2-oxo-2,3-dihydro-1H-imidazol-1-yl)quinolin-2(1H)-one] | ≥ 50%
CCn1c(=O)cc(C2CC2)c2cc(-n3c(-c4ccc(C(F)(F)F)cc4)cn(C)c3=O)ccc21 [Example 267, 4-cyclopropyl-1-ethyl-6-(3-methyl-2-oxo-5-(4-(trifluoromethyl)phenyl)-2,3-dihydro-1H-imidazol-1-yl)quinolin-2(1H)-one] | ≥ 50%
CCn1c(=O)cc(N2CCOCC2)c2cc(N(C)C(=O)c3ccc(Cl)cc3)ccc21 [Example 250, 4-chloro-N-(1-ethyl-4-(morpholin-4-yl)-2-oxo-1,2-dihydroquinolin-6-yl)-N-methylbenzamide] | ≥ 50%
CCn1c(=O)cc(C2CC2)c2cc(-c3cccnc3-c3ccccc3)ccc21 [Example 278, 4-cyclopropyl-1-ethyl-6-(2-phenylpyridin-3-yl)quinolin-2(1H)-one] | ≥ 50%
CCn1c(=O)cc(N2CCOCC2)c2cc(-n3c(-c4ccc(C)cc4)cn(C)c3=O)ccc21 [Example 273, 1-ethyl-6-(3-methyl-5-(4-methylphenyl)-2-oxo-2,3-dihydro-1H-imidazol-1-yl)-4-(morpholin-4-yl)quinolin-2(1H)-one] | ≥ 50%
CCn1c(=O)cc(C2CC2)c2cc(-c3nc(C)nn3-c3ccccc3)ccc21 [Example 252] | ≥ 50%
CCn1c(=O)cc(N2CCOCC2)c2cc(-n3c(-c4ccc(Cl)cc4)c[nH]c3=O)ccc21 [Example 245, 6-(5-(4-chlorophenyl)-2-oxo-2,3-dihydro-1H-imidazol-1-yl)-1-ethyl-4-(morpholin-4-yl)quinolin-2(1H)-one] | ≥ 50%
CCn1c(=O)cc(N2CCOCC2)c2cc(-c3cccnc3-c3ccccc3)ccc21 [Example 279, 1-ethyl-4-(morpholin-4-yl)-6-(2-phenylpyridin-3-yl)quinolin-2(1H)-one] | ≥ 50%
CCn1c(=O)cc(N2CCOCC2)c2cc(-n3ccnc3-c3ccccc3)ccc21 [Example 255] | ≥ 50%
CCn1c(=O)cc(C2CCN(C)CC2)c2cc(C(=O)N(C)c3ccc(C)c(F)c3)ccc21 [Example 292, 1-ethyl-N-(3-fluoro-4-methylphenyl)-N-methyl-4-(1-methylpiperidin-4-yl)-2-oxo-1,2-dihydroquinoline-6-carboxamide] | ≥ 50%
CCn1c(=O)cc(C2CC2)c2cc(N3C(=O)C(C)C(=O)N3c3ccccc3)ccc21 (centres unmarked) [Example 280, 1-(4-cyclopropyl-1-ethyl-2-oxo-1,2-dihydroquinolin-6-yl)-4-methyl-2-phenylpyrazolidine-3,5-dione] | ≥ 50%
CCn1cc(-c2ccccc2)n(-c2ccc3c(c2)c(N2CCOCC2)cc(=O)n3CC)c1=O [Example 266, 1-ethyl-6-(3-ethyl-2-oxo-5-phenyl-2,3-dihydro-1H-imidazol-1-yl)-4-(morpholin-4-yl)quinolin-2(1H)-one] | ≥ 50%
CCn1c(=O)cc(N2CCOCC2)c2cc(-n3c(-c4ccc(C(F)(F)F)cc4)cn(C)c3=O)ccc21 [Example 270, 1-ethyl-6-(3-methyl-2-oxo-5-(4-(trifluoromethyl)phenyl)-2,3-dihydro-1H-imidazol-1-yl)-4-(morpholin-4-yl)quinolin-2(1H)-one] | ≥ 50%
CCn1c(=O)cc(N2CCOCC2)c2cc(-n3c(-c4ccccc4)cn(CCOC)c3=O)ccc21 [Example 263, 1-ethyl-6-(3-(2-methoxyethyl)-2-oxo-5-phenyl-2,3-dihydro-1H-imidazol-1-yl)-4-(morpholin-4-yl) quinolin-2(1H)-one] | ≥ 50%
